Measured values as given in patent publication US20220073536A1 (Rigel Pharmaceuticals, Inc., priority 2003, published 2022).
Where two headings read alike, the source gives them in different places.

Test system: cultured human mast cells (CHMC)
Test: CHMC low cell density IgE activation: tryptase assay
Format: cell-based
Details: low cell density CHMC, IgE activation, tryptase
Summary of the method: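 Anti-IgE-driven degranulation of cultured human mast cells at low density, 1000–1500 cells/well, was induced over 30 min at 37 °C. It was scored by supernatant tryptase activity on a fluorogenic substrate.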

[1] = Homo sapiens, Mast cell, 3 pt, read-out: LD Tryptase, CHMC, IgE, 3 pt
[2] = Homo sapiens, Mast cell, 8 pt, read-out: LD Tryptase, CHMC, IgE, 8 pt

Row | SMILES | IC50 [1] [µM] | IC50 [2] [µM] | further results
1 | COc1ccc(Nc2nc(Nc3ccc4cnn(CC5CCCCC5)c4c3)ncc2F)cc1Cl [Compound 722, N4-(3-Chloro-4-methoxyphenyl)-N2-[1-(cyclohexylmethyl)indazol-6-yl]-5-fluoro-2,4-pyrimidinediamine] | < 10 | < 10 | –
2 | Fc1cnc(Nc2ccc3cnn(CC4CCCCC4)c3c2)nc1Nc1ccc(Cl)c(Cl)c1 [Compound 723, N2-[1-(Cyclohexylmethyl)indazol-6-yl]-N4-(3,4-dichlorophenyl)-5-fluoro-2,4-pyrimidinediamine] | > 10 | – | –
3 | COc1cc(Nc2nc(Nc3ccc4cnn(CC5CCCCC5)c4c3)ncc2F)ccc1F [Compound 725, N2-[1-(Cyclohexylmethyl)indazol-6-yl)-5-fluoro-N4-(4-fluoro-3-methoxyphenyl)-2,4-pyrimidinediamine] | < 10 | – | –
4 | COc1ccc(Nc2nc(Nc3ccc4c(cnn4CC4CCC4)c3)ncc2F)cc1Cl [Compound 726, N4-(3-Chloro-4-methoxyphenyl)-N2-[1-(cyclobutylmethyl)indazol-5-yl]-5-fluoro-2,4-pyrimidinediamine] | < 10 | – | –
5 | Fc1cnc(Nc2ccc3c(cnn3CC3CCC3)c2)nc1Nc1ccc(Cl)c(Cl)c1 [Compound 727, N2-[1-(Cyclobutylmethyl)indazol-5-yl]-N4-(3,4-dichlorophenyl)-5-fluoro-2,4-pyrimidinediamine] | < 10 | – | –
6 | CC1(C)Oc2ccc(Nc3nc(Nc4ccc5c(cnn5CC5CCC5)c4)ncc3F)cc2NC1=O [Compound 728, N2-[1-(Cyclobutylmethyl)indazol-5-yl]-N4-(2,2-dimethyl-3-oxo-4H-benz[1,4]oxazin-6-yl)-5-fluoro-2,4-pyrimidinediamine] | – | < 10 | –
7 | COc1cc(Nc2nc(Nc3ccc4c(cnn4CC4CCC4)c3)ncc2F)ccc1F [Compound 729, N2-[1-(Cyclobuylmethyl)indazol-5-yl)-5-fluoro-N4-(4-fluoro-3-methoxyphenyl)-2,4-pyrimidinediamine] | – | – | IC50 (8 pt, read-out: LD Tryptase, CHMC, IgE, 8 pt): < 10 µM
8 | Fc1cnc(Nc2ccc3cnn(CC4CCC4)c3c2)nc1Nc1ccc(Cl)c(Cl)c1 [Compound 731, N2-[1-(Cyclobutylmethyl)indazol-6-yl]-N4-(3,4-dichlorophenyl)-5-fluoro-2,4-pyrimidinediamine] | < 10 | – | –
9 | CC1(C)Oc2ccc(Nc3nc(Nc4ccc5cnn(CC6CCC6)c5c4)ncc3F)cc2NC1=O [Compound 732, N2-[1-(Cyclobutylmethyl)indazol-6-yl]-N4-(2,2-dimethyl-3-oxo-4H-benz[1,4]oxazin-6-yl)-5-fluoro-2,4-pyrimidinediamine] | – | < 10 | –
10 | COc1cc(Nc2nc(Nc3ccc4cnn(CC5CCC5)c4c3)ncc2F)ccc1F [Compound 733, N2-[1-(Cyclobuylmethyl)indazol-6-yl)-5-fluoro-N4-(4-fluoro-3-methoxyphenyl)-2,4-pyrimidinediamine] | – | – | IC50 (3 pt, read-out: LD Tryptase, CHMC, IgE, 3 pt): < 10 µM
11 | COc1ccc(Nc2nc(Nc3ccc4c(cnn4CC4CC4)c3)ncc2F)cc1Cl [Compound 734, N4-(3-Chloro-4-methoxyphenyl)-N2-[1-(cyclopropylmethyl)indazol-5-yl]-5-fluoro-2,4-pyrimidinediamine] | – | < 10 | –
12 | Fc1cnc(Nc2ccc3c(cnn3CC3CC3)c2)nc1Nc1ccc(Cl)c(Cl)c1 [Compound 735, N2-[1-(Cyclopropylmethyl)indazol-5-yl]-N4-(3,4-dichlorophenyl)-5-fluoro-2,4-pyrimidinediamine] | < 10 | – | –
13 | CC1(C)Oc2ccc(Nc3nc(Nc4ccc5c(cnn5CC5CC5)c4)ncc3F)cc2NC1=O [Compound 736, N2-[1-(Cyclopropylmethyl)indazol-5-yl]-N4-(2,2-dimethyl-3-oxo-4H-benz[1,4]oxazin-6-yl)-5-fluoro-2,4-pyrimidinediamine] | – | < 10 | –
14 | COc1cc(Nc2nc(Nc3ccc4c(cnn4CC4CC4)c3)ncc2F)ccc1F [Compound 737, N2-[1-(Cyclopropylmethyl)indazol-5-yl)-5-fluoro-N4-(4-fluoro-3-methoxyphenyl)-2,4-pyrimidinediamine] | – | < 10 | –
15 | COc1ccc(Nc2nc(Nc3ccc4cnn(CC5CC5)c4c3)ncc2F)cc1Cl [Compound 738, N4-(3-Chloro-4-methoxyphenyl)-N2-[1-(cyclopropylmethyl)indazol-6-yl]-5-fluoro-2,4-pyrimidinediamine] | – | < 10 | –
16 | COc1cc(Nc2nc(Nc3ccc4cnn(CC5CC5)c4c3)ncc2F)ccc1F [Compound 741, N2-[1-(Cyclopropylmethyl)indazol-6-yl)-5-fluoro-N4-(4-fluoro-3-methoxyphenyl)-2,4-pyrimidinediamine] | – | < 10 | –
17 | COc1ccc(Nc2nc(Nc3ccc4c(cnn4C4CCCCC4)c3)ncc2F)cc1Cl [Compound 742, N4-(3-Chloro-4-methoxyphenyl)-N2-(1-cyclohexylindazol-5-yl)-5-fluoro-2,4-pyrimidinediamine] | < 10 | < 10 | –
18 | Fc1cnc(Nc2ccc3cnn(C4CCCCC4)c3c2)nc1Nc1ccc(Cl)c(Cl)c1 [Compound 747, N2-(1-Cyclohexylindazol-6-yl)-N4-(3,4-dichlorophenyl)-5-fluoro-2,4-pyrimidinediamine] | < 10 | – | –
19 | CC1(C)Oc2ccc(Nc3nc(Nc4ccc5cnn(C6CCCCC6)c5c4)ncc3F)cc2NC1=O [Compound 748, N2-(1-Cyclohexylindazol-6-yl)-N4-(2,2-dimethyl-3-oxo-4H-benz[1,4]oxazin-6-yl)-5-fluoro-2,4-pyrimidinediamine] | – | < 10 | –
20 | COc1cc(Nc2nc(Nc3ccc4cnn(C5CCCCC5)c4c3)ncc2F)ccc1F [Compound 749, N2-(1-Cyclohexylindazol-6-yl)-5-fluoro-N4-(4-fluoro-3-methoxyphenyl)-2,4-pyrimidinediamine] | < 10 | – | –
21 | Cc1n[nH]c2cc(Nc3ncc(F)c(Nc4ccc(Cl)c(Cl)c4)n3)ccc12 [Compound 750, N4-(3,4-Dichlorophenyl)-5-fluoro-N2-(3-methylindazol-6-yl)-2,4-pyrimidinediamine] | < 10 | < 10 | –
22 | COc1ccc(Nc2nc(Nc3ccc4c(C)nn(C)c4c3)ncc2F)cc1Cl [Compound 752, N4-(3-Chloro-4-methoxyphenyl)-N2-(1,3-dimethylindazol-6-yl)-5-fluoro-2,4-pyrimidinediamine] | < 10 | < 10 | –
23 | COc1cc(Nc2nc(Nc3ccc4c(C)nn(C)c4c3)ncc2F)ccc1F [Compound 755, N2-(1,3-Dimethylindazol-6-yl)-5-fluoro-N4-(4-fluoro-3-methoxyphenyl)-2,4-pyrimidinediamine] | < 10 | < 10 | –

Now from value to molecule, other results behind:

Row | IC50 [1] [µM] | IC50 [2] [µM] | SMILES | further results
24 | – | < 10 | CC1(C)Oc2ccc(Nc3nc(Nc4ccc5cnn(CC6CCCCC6)c5c4)ncc3F)cc2NC1=O [Compound 724, N2-[1-(Cyclohexylmethyl)indazol-6-yl]-N4-(2,2-dimethyl-3-oxo-4H-benz[1,4]oxazin-6-yl)-5-fluoro-2,4-pyrimidinediamine] | –
25 | < 10 | – | COc1ccc(Nc2nc(Nc3ccc4cnn(CC5CCC5)c4c3)ncc2F)cc1Cl [Compound 730, N4-(3-Chloro-4-methoxyphenyl)-N2-[1-(cyclobutylmethyl)indazol-6-yl]-5-fluoro-2,4-pyrimidinediamine] | –
26 | < 10 | – | Fc1cnc(Nc2ccc3cnn(CC4CC4)c3c2)nc1Nc1ccc(Cl)c(Cl)c1 [Compound 739, N2-[1-(Cyclopropylmethyl)indazol-6-yl]-N4-(3,4-dichlorophenyl)-5-fluoro-2,4-pyrimidinediamine] | –
27 | – | < 10 | CC1(C)Oc2ccc(Nc3nc(Nc4ccc5cnn(CC6CC6)c5c4)ncc3F)cc2NC1=O [Compound 740, N2-[1-(Cyclopropylmethyl)indazol-6-yl]-N4-(2,2-dimethyl-3-oxo-4H-benz[1,4]oxazin-6-yl)-5-fluoro-2,4-pyrimidinediamine] | –
28 | < 10 | – | Fc1cnc(Nc2ccc3c(cnn3C3CCCCC3)c2)nc1Nc1ccc(Cl)c(Cl)c1 [Compound 743, N2-(1-Cyclohexylindazol-5-yl)-N4-(3,4-dichlorophenyl)-5-fluoro-2,4-pyrimidinediamine] | –
29 | – | < 10 | CC1(C)Oc2ccc(Nc3nc(Nc4ccc5c(cnn5C5CCCCC5)c4)ncc3F)cc2NC1=O [Compound 744, N2-(1-Cyclohexylindazol-5-yl)-N4-(2,2-dimethyl-3-oxo-4H-benz[1,4]oxazin-6-yl)-5-fluoro-2,4-pyrimidinediamine] | –
30 | < 10 | – | COc1cc(Nc2nc(Nc3ccc4c(cnn4C4CCCCC4)c3)ncc2F)ccc1F [Compound 745, N2-(1-Cyclohexylindazol-5-yl)-5-fluoro-N4-(4-fluoro-3-methoxyphenyl)-2,4-pyrimidinediamine] | –
31 | < 10 | – | COc1ccc(Nc2nc(Nc3ccc4cnn(C5CCCCC5)c4c3)ncc2F)cc1Cl [Compound 746, N4-(3-Chloro-4-methoxyphenyl)-N2-(1-cyclohexylindazol-6-yl)-5-fluoro-2,4-pyrimidinediamine] | –
32 | < 10 | < 10 | Cc1n[nH]c2cc(Nc3ncc(F)c(Nc4ccc5c(c4)NC(=O)C(C)(C)O5)n3)ccc12 [Compound 751, N4-(2,2-Dimethyl-3-oxo-4H-benz[1,4]oxazin-6-yl)-5-fluoro-N2-(3-methylindazol-6-yl)-2,4-pyrimidinediamine] | –
33 | < 10 | < 10 | Cc1nn(C)c2cc(Nc3ncc(F)c(Nc4ccc(Cl)c(Cl)c4)n3)ccc12 [Compound 753, N4-(3,4-Dichlorophenyl)-N2-(1,3-dimethylindazol-6-yl)-5-fluoro-2,4-pyrimidinediamine] | –
34 | < 10 | < 10 | Cc1nn(C)c2cc(Nc3ncc(F)c(Nc4ccc5c(c4)NC(=O)C(C)(C)O5)n3)ccc12 [Compound 754, N2-(1,3-Dimethylindazol-6-yl)-N4-(2,2-dimethyl-3-oxo-4H-benz[1,4]oxazin-6-yl)-5-fluoro-2,4-pyrimidinediamine] | –
35 | < 10 | – | COc1ccc(Nc2nc(Nc3cc4cnn(C)c4cc3C)ncc2F)cc1Cl [Compound 756, N4-(3-Chloro-4-methoxyphenyl)-N2-(1,6-dimethylindazol-5-yl)-5-fluoro-2,4-pyrimidinediamine] | –
